The values that follow come from patent US20050010126A1, “Assessment of concentration of inhalational compounds in the brain” (priority 2001, published 2005).

The nature of data set [1]: alveolar membrane factor M of an inhalational compound. It counts as in vivo, patients. An excerpt: As the gas penetrates the alveolar membrane and enters the pulmonary capillary blood flow, it must follow the Fick's principal. See Katzung, R. G. (1998) Basic principles, introduction in basic and clinical pharmacology Appleton-Lange p 5. The Fick's principal defines the rate of penetrating the alveolar membrane as: DAk/x (Ci-Cb') D is a diffusion constant, A is the area of the membrane (proportional to the pulmonary capillary flow or cardiac output), k is a solubility coefficient, x is the thickness of the membrane, Ci is an inspired compound concentration, and Cb' is the mixed venous compound concentration. Assuming that the pulmonary capillary flow or the cardiac output is constant, then, for a given inhalational compound, DAk/x is a constant. This constant DAk/x is defined as a membrane factor, M, which varies from one inhalational compound to another. […] Since the membrane factor may vary slightly among patients, a more precise determination of the membrane factor can be performed as described below. The rate of penetrating the alveolar membrane DAk/x (Ci-Cb') can be expressed as: M(Ci-Cb'), in which M is DAk/x. When measuring an uptake of an inhalational compound-containing gas in each breathing cycle, the rate of the uptake is a function of a difference between the inspired concentration (Ci) and the expired concentration (Ce). The difference can be expressed as: Ci-Ce. Ci-Ce. and M (Ci-Cb') both represent the rate of uptake of an inhalational compound: Ci-Ce=M(Ci-Cb'), or M=(Ci-Ce)/(Ci-Cb'). During the initial introduction of an inhalational compound (before the FRC is filled with the gas), the membrane factor M for an individual can be approximated by assuming Cb'=0: M=(Ci-Ce)/Ci=1-(Ce/Ci).

Data set [2] is described as follows: assessment of mixed venous and brain anesthetic concentration from inspired and expired concentrations. An excerpt:
At the stage of anesthesia (after the FRC is filled with the gas), the equation: Ci′−Ce′=M (Ci′−Cb′) can be used to calculate the compound concentration in the mixed venous blood (Cb′), in which Ci′ and Cb′ are the inspired compound concentration and the expired compound concentration, respectively: Cb′=[Ci′(M−1)+Ce′]/M.
As discussed above, Cb=(A+J)/2 and (A+J)/2=(Ce′+2Cb′)/3 or (Ce′+3Cb′)/4, the compound concentration in the brain (Cb) can be expressed as: Cb=(Ce′+2Cb′)/3 or (Ce+3Cb′)/4.
Thus, with measurements of the expired compound concentration (Ce′) and the mixed venous compound concentration (Cb′), the compound concentration in the brain (Cb) can be readily obtained. Below are two examples of how to assess brain anesthetic concentrations by this method.
A tube is connected to the circle system of an anesthesia machine consisting of gas flowmeters, a compound vaporizer, supply of oxygen, air and nitrous oxide gas, and a ventilator (e.g., Detex-Ohmeda, Finland, or Drager, Germany). The gas is then delivered to the patient by the anesthesia machine. […] Near the connection between the circle system and the tube, a side arm sampling site is linked to a gas monitoring equipment (e.g., an infra-red monitor or a mass spectrometer). Typically, a sampling speed is 200 mL/min. […] A more precise determination of M is performed at the end of 3 min, when 85-95% of the FRC has been filled with the gas.

Setting [3] is: general value for the compound, for most patients.

Turning to `COC(F)(F)C(Cl)Cl` [methoxyflurane], the “membrane factor M (DAk/x)” value in data set [1] (setting [3]) worked out at 0.8.

As to `FCOC(C(F)(F)F)C(F)(F)F` [sevoflurane], in data set [2] (human, in vivo, 30 min), the “brain concentration (Cb) = (Ce'+2Cb')/3” value is listed as 1.77% and the “concentration in the mixed venous blood (Cb')” value was found to be 1.16%. Further, the “patient's membrane factor M = (Ci-Ce)/Ci” value in data set [1] (human, in vivo) worked out at 0.214.

For the compound `FC(F)OC(Cl)C(F)(F)F` (stereo not drawn) [isoflurane], the “membrane factor M (DAk/x)” value in data set [1] (human, in vivo) is 0.4.

In the case of `FC(F)(F)C(Cl)Br` (stereo not drawn) [halothane], the “membrane factor M (DAk/x)” value in data set [1] (human, in vivo) turned out to be 0.5.

In the case of `FC(F)OC(F)C(F)(F)F` (stereo not drawn) [desflurane], the “concentration in the brain (Cb) = (Ce'+3Cb')/4” value in data set [2] (desflurane, inspired 6.2%, expired 5.4%, M 0.2) stood at 3.0%. In addition, the “patient's membrane factor M = (Ci-Ce)/Ci” value in data set [1] (desflurane, inspired 6%, expired 4.8% at 3-4 minutes (85-95% of FRC filled)) is on record as 0.2. In addition, the “membrane factor M (DAk/x)” value in data set [1] (setting [3]) is reported as 0.2.
